This passage reports pest or weed control results from US20230017045A1, “PYRIDINE AND PYRIMIDINE CARBOXYLATE HERBICIDES AND METHODS OF USE THEREOF” (Dow AgroSciences LLC, priority 2017, published 2023).

In the assay the test system is test plant species. In words: Post-emergent herbicidal activity test (greenhouse, foliar spray, visual growth reduction). The format is in vivo. The note with it: post-emergence, 336 h, 140 g ai/ha, 14 days after application. Put shortly:
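Visual scoring 14 d after treatment (0 = no injury, 100 = complete control) against nontreated and solvent-blank plants gave percent growth reduction. Foliar application used a track sprayer delivering 187 L/ha to seedlings at first or second true leaf stage, grown at 23–29 °C day, ~15 h photoperiod.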

Where [1] appears, read: ALOMY: blackgrass (Alopecurus myosuroides), read-out: Visual Growth Reduction (%) 14 Days After Application, ALOMY.
Setting [2] is: AMARE: redroot pigweed (Amaranthus retroflexus), read-out: Visual Growth Reduction (%) 14 Days After Application, AMARE.
[3] abbreviates: AVEFA: wild oat (Avena fatua), read-out: Visual Growth Reduction (%) 14 Days After Application, AVEFA.
Setting [4] is: CHEAL: lambsquarters (Chenopodium album), read-out: Visual Growth Reduction (%) 14 Days After Application, CHEAL.
The mark [5] stands for this setting: CIRAR: canada thistle (Cirsium arvense), read-out: Visual Growth Reduction (%) 14 Days After Application, CIRAR.
The mark [6] stands for this setting: CYPES: yellow nutsedge (Cyperus esculentus), read-out: Visual Growth Reduction (%) 14 Days After Application, CYPES.
Where [7] appears, read: DIGSA: crabgrass (Digitaria sanguinalis), read-out: Visual Growth Reduction (%) 14 Days After Application, DIGSA.
Setting [8] is: ECHCG: barnyardgrass (Echinochloa crus-galli), read-out: Visual Growth Reduction (%) 14 Days After Application, ECHCG.
[9] abbreviates: IPOHE: ivy-leaf morning glory (Ipomoea hederacea), read-out: Visual Growth Reduction (%) 14 Days After Application, IPOHE.
The mark [10] stands for this setting: KCHSC: kochia (Bassia scoparia), read-out: Visual Growth Reduction (%) 14 Days After Application, KCHSC.
Where [11] appears, read: ORYSA: rice (Oryza sativa), read-out: Visual Growth Reduction (%) 14 Days After Application, ORYSA.
Setting [12] is: SETFA: giant foxtail (Setaria faberi), read-out: Visual Growth Reduction (%) 14 Days After Application, SETFA.
Setting [13] is: SORVU: grain sorghum (Sorghum vulgare), read-out: Visual Growth Reduction (%) 14 Days After Application, SORVU.
[14] abbreviates: STEME: common chickweed (Stellaria media), read-out: Visual Growth Reduction (%) 14 Days After Application, STEME.
Setting [15] is: TRZAS: wheat, spring (Triticum aestivum), read-out: Visual Growth Reduction (%) 14 Days After Application, TRZAS.

Like-named read-outs stand apart in the source and are kept apart here.

For `COC(=O)c1nc(-c2ccc3[nH]ccc3c2)c(F)cc1Cl` [F189, Methyl 3-chloro-5-fluoro-6-(1H-indol-5-yl)picolinate], the pest or weed control at 140 g/ha is, setting by setting: under setting [1], 0 to 29%; under setting [2], 0 to 29%; under setting [3], 0 to 29%; under setting [4], 30 to 44%; under setting [5], 30 to 44%; under setting [6], 0 to 29%. For the same compound, the pest or weed control at 140 g/ha reads like this: under setting [7], 0 to 29%; under setting [8], 0 to 29%; under setting [9], 60 to 74%; under setting [10], 0 to 29%; under setting [11], 0 to 29%; under setting [12], 0 to 29%. Also, the pest or weed control at 140 g/ha by setting is: under setting [13], 0 to 29%; under setting [14], 0 to 29%; under setting [15], 0 to 29%.

For the compound `COc1cc(C(F)(F)F)ccc1-c1nc(C(=O)O)c(Cl)cc1F` [F190, 3-Chloro-5-fluoro-6-(2-methoxy-4-(trifluoromethyl)phenyl) picolinic acid], the pest or weed control at 140 g/ha is, setting by setting: under setting [1], 0 to 29%; under setting [2], 95 to 100%; under setting [3], 60 to 74%; under setting [4], 95 to 100%; under setting [5], 85 to 94%; under setting [6], 0 to 29%. Also, the pest or weed control at 140 g/ha is, setting by setting: under setting [7], 85 to 94%; under setting [8], 95 to 100%; under setting [9], 95 to 100%; under setting [10], 75 to 84%; under setting [11], 30 to 44%; under setting [12], 95 to 100%. Further, the pest or weed control at 140 g/ha fell in the range of 95 to 100% under setting [13], 0 to 29% under setting [14] and 60 to 74% under setting [15].

Regarding `COC(=O)c1nc(-c2ncc(Cl)cc2Cl)ccc1Cl` [F191, Methyl 3′,5,5′-trichloro-[2,2′-bipyridine]-6-carboxylate], the pest or weed control at 140 g/ha under setting [1] is 0 to 29%; the pest or weed control at 140 g/ha under setting [2] was in the range of 85 to 94%; the pest or weed control at 140 g/ha under setting [3] was in the range of 0 to 29%; the pest or weed control at 140 g/ha under setting [4] fell in the range of 95 to 100%; the pest or weed control at 140 g/ha under setting [5] fell in the range of 85 to 94%; the pest or weed control at 140 g/ha under setting [6] was 45 to 59%. The pest or weed control at 140 g/ha fell in the range of 85 to 94% under setting [7]; 75 to 84% under setting [8]; 95 to 100% under setting [9]; 60 to 74% under setting [10]; 0 to 29% under setting [11]; 85 to 94% under setting [12]. The pest or weed control at 140 g/ha was 85 to 94% under setting [13], 0 to 29% under setting [14] and 0 to 29% under setting [15].

Take `O=C(O)c1nc(-c2ccc(C(F)(F)F)nc2Cl)ccc1Cl` [F192, 2′,5-Dichloro-6′-(trifluoromethyl)-[2,3′-bipyridine]-6-carboxylic acid]: the pest or weed control at 140 g/ha lay within 0 to 29% under setting [1]; 85 to 94% under setting [2]; 0 to 29% under setting [3]; 95 to 100% under setting [4]; 75 to 84% under setting [5]; 0 to 29% under setting [6]. Also, the pest or weed control at 140 g/ha lay in the range of 85 to 94% under setting [7]; 75 to 84% under setting [8]; 95 to 100% under setting [9]; 60 to 74% under setting [10]; 0 to 29% under setting [11]; 75 to 84% under setting [12]. Further, the pest or weed control at 140 g/ha lay in the range of 85 to 94% under setting [13], 0 to 29% under setting [14] and 0 to 29% under setting [15].

Regarding `O=C(O)c1nc(-c2ncc(Cl)c(C(F)F)c2Cl)ccc1Cl` [F193, 3′,5,5′-Trichloro-4′-(difluoromethyl)-[2,2′-bipyridine]-6-carboxylic acid], the pest or weed control at 140 g/ha lay in the range of 0 to 29% under setting [1]; 95 to 100% under setting [2]; 30 to 44% under setting [3]; 85 to 94% under setting [4]; 0 to 29% under setting [5]; 0 to 29% under setting [6]. The pest or weed control at 140 g/ha was in the range of 85 to 94% under setting [7]; 85 to 94% under setting [8]; 95 to 100% under setting [9]; 0 to 29% under setting [10]; 0 to 29% under setting [11]; 75 to 84% under setting [12]. Moreover, the pest or weed control at 140 g/ha lay in the range of 95 to 100% under setting [13], 0 to 29% under setting [14] and 0 to 29% under setting [15].

For `COC(=O)c1nc(-c2cnc(C(F)(F)F)cc2Cl)ccc1Cl` [F194, Methyl 4′,5-dichloro-6′-(trifluoromethyl)-[2,3′-bipyridine]-6-carboxylate], the pest or weed control at 140 g/ha under setting [1] was 0 to 29%; the pest or weed control at 140 g/ha under setting [2] was 0 to 29%; the pest or weed control at 140 g/ha under setting [3] was 0 to 29%; the pest or weed control at 140 g/ha under setting [4] is 30 to 44%; the pest or weed control at 140 g/ha under setting [5] was in the range of 75 to 84%; the pest or weed control at 140 g/ha under setting [6] lay within 0 to 29%. For the same compound, the pest or weed control at 140 g/ha reads like this: under setting [7], 0 to 29%; under setting [8], 45 to 59%; under setting [9], 95 to 100%; under setting [10], 0 to 29%; under setting [11], 0 to 29%; under setting [12], 0 to 29%. Further, the pest or weed control at 140 g/ha under setting [13] was in the range of 45 to 59%, the pest or weed control at 140 g/ha under setting [14] is 0 to 29% and the pest or weed control at 140 g/ha under setting [15] lay in the range of 0 to 29%.

In the case of `O=C(O)c1nc(-c2ncc(Cl)cc2Cl)ccc1Cl` [F195, 3′,5,5′-Trichloro-[2,2′-bipyridine]-6-carboxylic acid], the pest or weed control at 140 g/ha by setting is: under setting [1], 0 to 29%; under setting [2], 95 to 100%; under setting [3], 30 to 44%; under setting [4], 95 to 100%; under setting [5], 0 to 29%; under setting [6], 0 to 29%. Besides, the pest or weed control at 140 g/ha is, setting by setting: under setting [7], 60 to 74%; under setting [8], 75 to 84%; under setting [9], 95 to 100%; under setting [10], 60 to 74%; under setting [11], 30 to 44%; under setting [12], 60 to 74%. Also, the pest or weed control at 140 g/ha is 85 to 94% under setting [13], 0 to 29% under setting [14] and 45 to 59% under setting [15].

For the compound `O=C(O)c1nc(-c2cc3c(cc2Cl)OCO3)c(F)cc1Cl` [F196, 3-Chloro-6-(6-chlorobenzo[d][1,3]dioxol-5-yl)-5-fluoropicolinic acid], the pest or weed control at 140 g/ha reads like this: under setting [1], 0 to 29%; under setting [2], 75 to 84%; under setting [3], 0 to 29%; under setting [4], 85 to 94%; under setting [5], 0 to 29%; under setting [6], 0 to 29%. The pest or weed control at 140 g/ha by setting is: under setting [7], 0 to 29%; under setting [8], 0 to 29%; under setting [9], 95 to 100%; under setting [10], 60 to 74%; under setting [11], 0 to 29%; under setting [12], 0 to 29%. Besides, the pest or weed control at 140 g/ha lay in the range of 45 to 59% under setting [13], 0 to 29% under setting [14] and 0 to 29% under setting [15].
